The numbers were not newly measured in patent publication US6344433B1, “Long-acting disinfectant and its preparation method” (priority 1999, dated 2002), which cites them from elsewhere.

The conditions of this series: crystal powder.

For `Oc1cc(Cl)ccc1Oc1ccc(Cl)cc1Cl` [HD244, 2,4,4′-trichloro-2′-hydroxy diphenyl ether], the solubility in water entry is on record as “hardly soluble in water”.
